# Experiments:
# [1] = system: MDA-MB-231 cells; test: CyQUANT cell number after 2 h exposure and wash-out; assay type: cell-based, human; details: 50 μM, 2 h exposure then wash-out
# Procedure: FIG. 19A-E. Combination of cisplatin and mdivi-1 produces synergistic pro-apoptotic effect in multidrug resistant tumor cells. (A) MDA-MB-231 cells were treated with increasing doses of mdivi-1 for 72 h. The survival was assessed by MTS assay. […] (B) MDA-MB-231 cells were treated with increasing doses of cisplatin alone or the combination with 20 μM or 50 μM of mdivi-1 for 72 h. The survival was assessed by MTS assay. (C) MDA-MB-231 cells were exposed to cisplatin and mdivi-1 alone or combination at their IC50 or 0.5 fold of their IC50. The combination index (CI) and the normalized isobologram were generated using CompuSyn. (D) MDA-MB-231 cells were treated with DMSO, 50 μM cisplatin alone, 50 μM mdivi-1 alone, or the combination for 2 h. The compounds were then washed out and the cell number was determined every 24 h by CyQuant assay. (E) MDA-MB-231 cells were treated with agents alone, or the combination at a ratio of 1:1 for 20 h. The number of apoptotic cells was determined with antibody recognizing cleaved caspase-3 followed by flow cytometry.
# To explore this effect further, MDA-MB-231 cells were treated with DMSO as a vehicle control, 50 μM of cisplatin, 50 μM of mdivi-1, or 50 μM of cisplatin plus 50 μM of mdivi-1 for 2 hours. The cells were then washed with growth media and plated in black 96-well plates. Survivals were measured by CyQUANT assay. Data represent mean±SD. n=4 wells. […]
# [2] = system: MDA-MB-231 cells; test: Cell cycle analysis by anti-BrdU, anti-phospho-Histone H3 and PI staining; assay type: cell-based, human; details: 20 μM, 20 h
# Procedure: (§1) FIG. 22A-E. Mdivi-1 inhibits DNA replication and its combination with cisplatin enhances replication stress leading to efficient G2 phase arrest of the cell cycle. (A) MDA-MB-231 cells were treated with cisplatin alone, mdivi-1 alone or the combination at the indicated concentrations for 4 h. Western blot was then performed to detect the phosphorylation status of key proteins involved in DNA damage response. (B) MDA-MB-231 cells were treated with 20 μM cisplatin alone, 20 μM mdivi-1 alone or the combination for 20 h. The distribution of cell cycle was determined by triple staining of the cells with anti-BrdU, anti-phospho-Histone H3 and PI. (C) Quantification of the distribution of cell cycle analyzed in panel B. (D) The effect of mdivi-1 on the rate of DNA synthesis was analyzed by a histogram, which was generated from the data obtained in panel B, showing the changes of BrdU intensity. (E) Cells were treated as described in B and γ-H2AX was analyzed by western blot.
# Cells were treated with 20 μM cisplatin, 20 μM mdivi-1, or the combination of 20 μM cisplatin and 20 μM mdivi-1 for 20 h. S phase cells were then pulse-labeled with 10 μM BrdU for 30 min at 37° C. Cells were trypsinized, fixed in 70% ice-cold ethanol, and incubated overnight at 4° C. DNA was denatured in 2 N HCl containing 0.5% Triton X-100, and neutralized with 0.1 M Na2B4O7. Cells were then stained with FITC-labeled anti-BrdU antibody (BD Biosciences, San Jose, Calif.). To determine the number of cells in mitosis, cells were then stained with Alexa Fluor 647-conjugated phospho-Histone H3 (Ser 10) antibody (Cell signaling technology). To measure DNA content, cells were incubated in PI solution (PBS containing 50 μg/ml of PI and 40 μg/ml of RNase A) for 30 min at room temperature. Samples were analyzed on a CyAn ADP Analyzer (Beckman Coulter, Brea, Calif.). Data were analyzed using Summit software.
# [3] = system: MDA-MB-231 cells; test: Western blot of DNA damage response proteins; assay type: cell-based, human; details: 4 h; mdivi-1 alone at 50 μM
# Procedure: as §1
# Whole cell lysate was prepared by lysing cells in cell lysis buffer (Cell signaling technology) containing complete protease inhibitor (Roche). Cell lysates were then cleared at 15,000 rpm for 15 min at 4° C. […] The protein content was quantified using a Bio-Rad Protein Assay kit (Bio-Rad Laboratories, Hercules, Calif.). […]
# [4] = system: Drp1; details: as said in Cassidy-Stone et al., Dev Cell 14:193-204; cited from earlier work
SMILES,effect on cell growth / survival after short exposure [1],BrdU incorporation into DNA [2],S phase cells [2] [%],phosphorylation / activation of Chk1 [3],efficacy in inhibiting Drp1 relative to mdivi-1 [4],G2 phase cells [2] [%]
COc1cc(-n2c(=S)[nH]c3ccccc3c2=O)c(Cl)cc1Cl [mdivi-1],reversible,substantially decreased,44.23,induced activation of Chk1,full efficacy,–
N.N.[Cl][Pt][Cl] [cisplatin],only slightly slowed down cell growth,abolished the uptake of BrdU,–,phosphorylated,–,18.97
